In patent US7935532B2, “DWF4 polynucleotides, polypeptides and uses thereof” (Arizona Board of Regents for and on behalf of Arizona State …, priority 1999, dated 2011):

How the values were obtained:
Assay type in all cases: in vivo, Arabidopsis thaliana
dwf4 seedlings = experiment: Feeding of BR biosynthetic intermediates to dwf4 seedlings in liquid media (rescue, dose-response); conditions: for rescue of the light-grown dwf4 phenotype: liquid media; for response of dwf4 seedlings in dose-response experiment in the dark: dark-grown, 6-oxoCN 10^−8 to 3×10^−6 M, 6-deoxoCT high concentrations
Procedure: In view of the results described above, we hypothesized that DWF4 mediates one or more of several steroid hydroxylation steps in the BR biosynthetic pathway. To test this, dwf4 was grown on all of the available biosynthetic intermediates in the BR biosynthetic pathways and examined to ascertain which intermediates could rescue the dwarf phenotype. In addition to the intermediates belonging to the early C-6 oxidation and late C-6 oxidation pathways (Choi et al. (1997), supra), 22α-hydroxycampesterol (22-OHCR), 6α-hydroxycastasterone (6-OHCT) (Takatsuto et al. (1997) J. Chem. Res. (synop.) 11:418-419), and […] (S. Takatsuto, T. Watanabe, T. Noguchi, and S. Fujioka, unpublished data) were synthesized and tested.
Germinated seedlings were transferred to media supplemented with one of the intermediates or BL to pinpoint the step catalyzed by DWF4. […] In addition, the rescued seedlings were less green than the dwarfs. These experiments were conducted in liquid media. Feeding experiments performed in the dark yielded similar results.
However, on CT the overall morphology of dwf4 was essentially rescued to wild-type phenotype at 3×10^−7 M and higher, whereas with 6-deoxoCT, rescue occurred with as little as 10^−7 M and may have even been inhibitory at higher concentrations. Of particular interest is the more dramatic response of the epicotyls versus the smaller response of the hypocotyls to CT. This same phenomenon was true for seedlings treated with >10^−7 M 6-deoxoCT.
A higher concentration of CT for dark-grown seedlings, compared with light-grown seedlings, 3×10^−6 M (FIG. 5B), was required to convert the hypocotyl to a length similar to that of the wild type.

6-week-old dwf4 plants = experiment: Treatment of soil-grown mature dwf4 plants with BR intermediates and BL (pedicel elongation); conditions: 10^−6 M, compared with CT and TE at 10^−5 M
Procedure: To determine whether the results of the seedling feeding experiments could be applicable to soil-grown mature plants, 6-week-old dwf4 plants were treated with BR intermediates and BL. Concentrations of applied intermediates were adjusted empirically to optimize responses. Consistent with the results obtained from the seedlings experiments, only 22α-hydroxylated compounds can rescue the dwf4 phenotype. The elongation response was only observed in the young tissues of the inflorescence, regardless of whether the BRs were applied locally or sprayed over the entire plant. In contrast to the striking elongation of the peduncles and pedicels, fertility was not restored by BR treatment. The sterility in dwf4 is hypothesized to be mechanical, which means that the filaments are shorter than the carpels such that the pollen is shed onto the ovary walls rather than onto the stigmatic surface. In fact, if dwf4 plants are hand pollinated using […], fertility increases.

[1] = test system: wild-type and dwf4 seedlings; experiment: GA response of seedlings germinated on GA (hypocotyl elongation)
Procedure: The conditions used for plant growth were essentially as described previously (Feldmann (1991) Plant J. 1:71-82; Forsthoefel et al. (1992) Aust. J. Plant Physiol. 19:353-366), except that agar-solidified medium contained 0.5% sucrose. Seedlings up to 2 weeks of age ([…] of age for dark-growth experiments) were grown on 0.9% agar-solidified medium containing 1×Murashige and Skoog 1962 salts (Murashige, T., and Skoog, F. (1962) Physiol. Plant, 15:473-497) and 0.5% sucrose (w/v) and cold treated (4° C.) for 2 days in the dark before transfer to the light (24 hr light; 80 μmol M^−2 sec^−1); older plants were grown in potting soil. The plates were sealed with Parafilm (American National Can Co., Chicago, Ill.) for the entire experiment. For nucleic acid extraction, genetic analysis, and other experiments in which mature plants were required, seeds were sown on Metromix 350 (Grace Sierra, Milpitas, Calif.) presoaked with distilled water. The pots were covered with plastic wrap and cold treated (4° C.) for two days before transfer to a growth chamber (16:8, light [240 μmol m^−2 sec^−1]:dark; 22 and 21° C., respectively, and 75 to 90% humidity). The plastic wrap was removed 5 days after germination, and the pots were subirrigated in distilled water as required. Germination of seeds for dark growth experiments was induced by overnight exposure of the seeds to light immediately after removing the plates from incubation at 4° C. The dwf4-1 and dwf4-2 mutations were in the Arabidopsis thaliana ecotype Wassilewskija (Ws-2) background; the dwf4-3 and dwf4-4 mutations were in the Enkheim (En-2) background.
Of the endogenous (hormonal) signals that might be deficient in dwarf plants, an obvious candidate is GA, because gibberellin-deficient mutants are shorter in stature than are the wild-type plants (Koommeef and Van der Veen, supra). Our results, however, indicate that dwf4 is not defective in the synthesis of gibberellins. […] Similar results were obtained when soil-grown plants were sprayed with 1 mM GA once inflorescences first became visible: dwf4 inflorescence stems elongated by only 28% above the untreated controls, whereas those of the wild type elongated by 45% above the untreated controls. Mutants that owe their reduced stature to decreased levels of endogenous gibberellins can be fully rescued by added hormone (Koornneef and Van der Veen, supra; Talon et al., supra). In addition, dwf4 seeds germinate in the absence of exogenously supplied GA.

[2] = test system: wild-type and dwf4 plants; experiment: GA response of soil-grown plants sprayed with GA (inflorescence stem length)
Procedure: (§1) Gibberellic acid (GA) response was assayed on plants grown individually in 5.7-cm pots. Once inflorescences reached 1 to 2 mm in height, they were sprayed weekly with 1 mM GA3 (Sigma). Control plants were sprayed with water. One week after the third spraying, plants were collected, and the length of the main stem was measured between the top of the rosette and the base of the most distal pedicel; 13 to 18 plants of each line were measured per treatment. Auxin response was tested by growing seedlings for 10 days under 16 hr of light on vertically oriented agar plates containing various concentrations of 2,4-D (Gibco, Grand Island, N.Y.). Genetic interaction with the hy2 mutation was tested by growing seedlings under continuous light for 7 days. Brassinolide (BL) response was determined in liquid culture, as described by Clouse et al. (1993) supra, except that three or four seedlings were grown in each well of a 24-well culture plate for 7 days. Measurements were taken for 10 to 20 seedlings for each genotype and condition, under a dissection microscope fitted with an ocular micrometer.
Of the endogenous (hormonal) signals that might be deficient in dwarf plants, an obvious candidate is GA, because gibberellin-deficient mutants are shorter in stature than are the wild-type plants (Koommeef and Van der Veen, supra). […]

DWF4 promoter (D4GL) = experiment: DWF4-promoter:GUS (D4GL) activity in seedlings supplied with hormone
Excerpt: Two promoter constructs were used for the DWF4-promoter:GUS(D4G) analysis. For promoter fusions, polymerase chain reaction (PCR) products spanning 1.1 kb DNA upstream of the translation initiation site were amplified using primers D4XLINIT (5′-[…]-3′) (SEQ ID NO:16) and a T7 primer (5′[…]-3′) (SEQ ID NO:17). For template for PCR, a DWF4 genomic clone subcloned into pBluescript SK-vector (Stratagene La Jolla, Calif.) was used as described herein. The PCR products were restricted with SalI and BamHI, and ligated into the same restriction site of a promoterless GUS vectors pBI101; this 1.1 kb promoter:GUS construct as named pD4GL. For the pD4GS construct, pD4GL was digested with HindIII, the small restriction fragment was removed, and the remaining vector with the partial promoter was self-ligated. The constructs were introduced into Agrobacterium strain GV3101 through electroporation.
For histochemical analysis of the D4GL plants, seeds were plated on M&S plates and grown in the dark and light. Seedlings were harvested at the designated dates and stained overnight using a substrate mixture (0.1 M NaPO4, pH 7, 10 mM EDTA, 0.5 mM K3Fe(CN)6, 0.5 mM K4FE(CN)6, 1 mM X-glucuronide, and 0.1% Triton X-100). Seedlings cleared with 90% ethanol were rehydrated before taking pictures using a Stemi SV11 dissecting microscope (Zeiss, N.Y.).
Since DWF4 is proposed to be a key enzyme in the BR biosynthetic pathway, DWF4 transcription could be regulated by an end-product feedback mechanism. To this end, D4GL was expressed in different genetic backgrounds including two BR deficient mutants, dwf7-1 and dwf8-1, and a BR-enriched line, AOD4. GUS activity was increased in dwf7-1 and dwf8-1 but decreased in AOD4 lines. DWF7 is a C-5 desaturase that acts in the sterol specific part of the pathway. D4GL activity in dwf7-1 was found in the same tissues as wild type but, dwf8-1 is defective in a BR biosynthetic step downstream of CPD. […]

[3] = test system: wild-type and dwf4 seedlings; experiment: Auxin response of seedlings on vertically oriented agar plates with 2,4-D
Procedure: as §1
Auxin can also stimulate cell elongation. This effect is especially visible in young seedlings (Klee and Estelle, supra). […] Higher concentrations of auxin were inhibitory for both wild-type and dwf4 seedlings, and lower concentrations had no effect. In view of the inhibition of root growth, it is clear that dwf4 is not auxin resistant; rather, its elongation response is compromised.

wild-type seedlings = experiment: Hypocotyl and root length of wild-type seedlings supplemented with epi-BL; conditions: light-grown wild type, 10^−6 M epi-BL, 12 days
Procedure: To compare the phenotypic effects resulting form the endogenous and exogenous addition of BRs, the length of roots and hypocotyls of 16 seedlings of dwf4, wild-type controls, wild-type plants supplemented with 10^−6 M epi-BL, and two independent AOD4 lines, grown for 12 days in the light or dark was measured. […] These characteristic responses of wild-type plants to epi-BL treatment were similar in two independent AOD4 lines. […] Inhibition of root growth was also obvious in the AOD4 lines. Furthermore the increased hypocotyl length and reduced root length were consistently observed in 15 independent transformants of tobacco (TOD4) harboring a pOD4 construct.

[4] = light-grown seedlings, dose-response

CC(C)[C@H](C)[C@@H](O)[C@H](O)[C@@H](C)[C@H]1CC[C@H]2[C@@H]3C[C@H](O)[C@H]4C[C@H](O)[C@H](O)C[C@]4(C)[C@H]3CC[C@]12C [6-OHCT, 6α-hydroxycastasterone]
rescue of the light-grown dwf4 phenotype (dwf4 seedlings; light-grown seedlings): rescued

CC(C)[C@H](C)C[C@H](O)[C@@H](C)[C@H]1CC[C@H]2[C@@H]3CC[C@H]4C[C@@H](O)CC[C@]4(C)[C@H]3CC[C@]12C [6-deoxoCT, 6-deoxocathasterone]
sensitivity of dwf4 pedicels (6-week-old dwf4 plants): more sensitive | response of dwf4 seedlings in dose-response experiment in the dark (dwf4 seedlings): caused dramatic elongation but were less effective at rescuing dwf4 hypocotyls to wild-type phenotype | concentration at which dwf4 overall morphology is rescued to wild-type phenotype (dwf4 seedlings; [4]): ≥ 10^−7 M | concentrations at which seedlings displayed inhibition in hypocotyl and root elongation and cotyledon and leaf expansion (dwf4 seedlings; [4]): > 10^−7 M | rescue of the light-grown dwf4 phenotype (dwf4 seedlings; light-grown seedlings): rescued

CC(C)[C@H](C)CC[C@@H](C)[C@H]1CC[C@H]2[C@@H]3CC(=O)[C@H]4C[C@@H](O)CC[C@]4(C)[C@H]3CC[C@]12C [6-oxoCN, 6-oxocampestanol]
response of dwf4 seedlings in dose-response experiment in the dark (dwf4 seedlings): failed to respond | response of dwf4 seedlings in dose-response test (dwf4 seedlings; light-grown, even at high concentrations (3×10^−6 M)): failed to respond

C=C1C[C@]23C[C@@]1(O)CC[C@H]2[C@@]12C=C[C@H](O)[C@@](C)(C(=O)O1)[C@H]2[C@@H]3C(=O)O [GA, Gibberellic acid]
hypocotyl elongation response to GA ([1]; dwf4 seedlings germinated on 10^−5 M GA): responded minimally, if at all | hypocotyl elongation response to GA ([1]; dwf4 seedlings, 10^−4 M compared with 10^−5 M GA): essentially saturated for elongation | hypocotyl elongation response to GA ([1]; wild-type seedlings at 10^−4 M GA): elongated slightly more than at 10^−5 M | hypocotyl elongation response to GA ([1]; wild-type seedlings germinated on 10^−5 M GA): demonstrated an elongation response | inflorescence stem elongation above the untreated controls ([2]; dwf4, soil-grown plants sprayed with 1 mM GA): 28% | inflorescence stem elongation above the untreated controls ([2]; wild type, soil-grown plants sprayed with 1 mM GA): 45% | GUS staining in shoots and roots of D4GL plants (DWF4 promoter (D4GL); 10^−4 M GA3): did not display an increase in GUS staining | hypocotyl length of D4GL plants (DWF4 promoter (D4GL); 10^−4 M GA3): longer than controls

O=C(O)COc1ccc(Cl)cc1Cl [2,4-D]
hypocotyl elongation ([3]; concentrations lower than 10^−8 M): no effect | root growth ([3]; wild-type and dwf4 seedlings, 10 days, all concentrations assayed): inhibition of root growth was evident | hypocotyl elongation ([3]; wild-type and dwf4 seedlings, concentrations higher than 10^−8 M): inhibitory

CC(C)[C@@H](C)[C@@H](O)[C@H](O)[C@@H](C)[C@H]1CC[C@H]2[C@@H]3COC(=O)[C@H]4C[C@H](O)[C@H](O)C[C@]4(C)[C@H]3CC[C@]12C [epi-BL, 24-epibrassinolide]
hypocotyl length (wild-type seedlings): elongated hypocotyls | root length (wild-type seedlings): shorter than untreated control plants | GUS activity of D4GL plants (DWF4 promoter (D4GL); 10^−6 M epi-BL, tissues normally stained in untreated controls): greatly reduced GUS activity

CC(C)[C@H](C)[C@@H](O)[C@H](O)[C@@H](C)[C@H]1CC[C@H]2[C@@H]3CC[C@H]4C[C@@H](O)CC[C@]4(C)[C@H]3CC[C@]12C [6-deoxoTE, 6-deoxoteasterone]
sensitivity of dwf4 pedicels (6-week-old dwf4 plants): more sensitive
